Measured values reported in paper PMC4015918, “Conjugation to a SMAC mimetic potentiates sigma-2 ligand induced tumor cell death in ovarian cancer” (Molecular Cancer, 2014).
“Also recorded” adds a separate entry of the source.

Assays:
[1] = test system: mouse 66 (mammary carcinoma) or MDA-MB-435 cells (human melanoma); set-up: method as in PMID 22201533; details: nude mice bearing mouse 66 or MDA-MB-435 tumors; cited from earlier work
SKOV3 cells = experiment: Blocking study: competition with uptake of fluorescent sigma-2 ligand SW120, flow cytometry; format: cell-based; details: SKOV3 cells pretreated 30 min with increasing concentrations, then 10 nM SW120 for 30 min
Method: Figure 1 Compound structures and cell binding characteristics of SW IV-134. (A) The chemical structures of sigma-2 ligand SW43, the SMAC peptidomimetic SW IV-52, and the chemical conjugate SW IV-134. Note that the chirality of SW IV-52 is fully retained in the drug conjugate (asterisks). […] SKOV3 cells were pretreated with increasing concentration of SW IV-134, followed by incubation with SW120, prior to analysis by flow cytometry.
SKOV3 cells (3 × 10^4/well) were seeded into 6 cm plates for 24 hours before treatment. The cells were incubated with 5, 10, 50, and 100 μM doses of SW IV-134 for 30 minutes at 37°C. After this step, 10 nM SW120 was added to the cell culture medium containing SW IV-134. After 30 minute incubation at 37°C, cells were washed twice with phosphate buffered saline (PBS) and harvested with 0.05% trypsin EDTA (Life Technologies, Grand Island, NY). The cells were centrifuged at 1000 × g for 5 minutes and pellets washed twice with PBS. Internalization of SW120 was determined by flow cytometer (FACSCalibur, BD Biosciences, San Jose, CA).
Supplementary file 1476-4598-13-50-S2.pdf: Additional file 2: Figure S1 Receptor binding characteristics of the individual components of SW IV-134. SKOV3 cells were pretreated with increasing concentration of (A) SW43 and (B) SW IV-52, followed by incubation with SW120, prior to analysis by flow cytometry. […] Click here for file

[2] = test system: ovarian cancer cell lines (SKOV3, OVCAR3, HEY A8, HEY A8 MDR); experiment: Cell viability (CellTiter-Glo) in a panel of four ovarian cancer cell lines; format: cell-based; details: increasing doses, 18 hours
Method: (A) SKOV3, (B) OVCAR3 (C) HEY A8 and (D) HEY A8 MDR cells were treated with increasing doses of SW43, SW IV-52, SW43 plus SW IV-52, and SW IV-134 for 18 hours. Cell viability was determined by CellTiter-Glo assays [p < 0.015 (A), NS (B), p < 0.017 (C), p < 0.034 (D), one-way ANOVA].
Cells (1 × 10^4) were seeded into 96 well plates. Treatment as described in the figure legends was initiated the following day. Cell viability was determined 18 hours after treatment using CellTiter-Glo Luminiscent Viability Assay (Promega, Madison, WI). Data were recorded with a SpectraMax Gemini microplate spectrofluorometer, Molecular Devices (Silicon Valley, CA).

Row | SMILES | Tumor-selective uptake of SW120 in vivo [1] | Blocking of SW120 uptake (SKOV3 cells) | Killing activity (cell viability) [2]
1 | COc1ccc(C)cc1NC(=O)OC1CC2CCCC(C1)N2CCCCCCCCCCNc1ccc([N+](=O)[O-])c2nonc12 (stereo not drawn) [SW120] | taken up selectively by proliferating tumor cells and not by the generally quiescent peripheral blood mononuclear cells |  | 
2 | CN[C@@H](C)C(=O)N[C@H](C(=O)N1CCC[C@H]1C(=O)N[C@@H]1CCCc2ccccc21)C(C)(C)C [SW IV-52] |  | nearly incapable of blocking the uptake of SW120; also recorded: nearly incapable of interfering with the uptake of SW120 | minimal single-agent activity at concentrations up to 200 μM
